Literature values in patent US20030170327A1, “Vitamin and zinc monomethionine compositions” (priority 2002, published 2003).

Settings: versus other forms of zinc found in nutritional supplements

absorption in comparison to other forms of zinc: better absorbed
retention in comparison to other forms of zinc: retained longer
SMILES: CSCC[C@H](N)C(=O)O.[Zn] [zinc monomethionine]
